One may read the IC50 as the concentration needed to halve the response being measured. Low readings indicate greater potency, high ones weaker potency.

The results in this text go back to publication PMC10076643, “Design, synthesis and anticancer activity studies of 3-(coumarin-3-yl)-acrolein derivatives: Evidenced by integrating network pharmacology and vitro assay” (Frontiers in Pharmacology, 2023).

Molecules are shown by their SMILES.

The subject of series [1] is KB (human oral epidermoid carcinoma cell line). The experiment in a line: MTT antiproliferative assay, KB. Format: cell-based. From the text:
(§1) All the synthesized compounds were screened for in vitro antiproliferative activity against four human cancer cell lines A549 (human lung cancer cell line), KB (human oral epidermoid carcinoma cell line), Hela (human cervical carcinoma cell line), MCF-7 (human breast cancer cell line) and two human normal cell lines HUVEC (human umbilical vein endothelial cell) and LO2 (human normal hepatocytes) through the 3-(4,5-dimethyl-2-thiazolyl)-2,5-diphenyl-2-H-tetrazolium bromide (MTT) assay.
(§2) Non-small-cell lung cancer (A549), oral epidermoid carcinoma (KB), cervical cancer (Hela) and breast cancer (MCF-7) cells were purchased from the American Type Culture Collection (ATCC, America). Human umbilical vein endothelial cell (HUVEC) and human normal hepatocytes (LO2) cells were provided by Guangzhou Medical University (Guangzhou, China). A549 and KB cells were cultured in RMPI-1640 medium (Gibco, America). Hela, MCF-7 and LO2 cells were cultured in DMEM medium (Gibco, America). HUVEC cells were cultured in Ham’s F-12K medium (Gibco, America). All the mediums were supplemented with 10% fetal bovine serum (FBS) (BI, State of Israel), 100 U/mL penicillin and 100 μg/mL streptomycin (Gibco, America), and all the cells were incubated in a sterile incubator at 37°C in an environment of 5% CO2. The tested compounds were dissolved in dimethyl sulfoxide (DMSO) at a concentration of 10 mM, and then diluted into different concentration of solutions by culture medium. The final concentration of DMSO was <0.01% (v/v) in all drug treatment groups to avoid the toxicity in the biological system. Untreated cells were used as a blank control and 5-fluorouracil treated cells were used as a positive control.
(§3) The incubated tumor cells were planted into 96-well plates (4×10^3 cells/well). After 24 h, the cells were adherent to the wall and treated with the compound 6e in different concentrations (0.78, 1.56, 3.12, 6.25, 12.50, 25.00, and 50.00 μM) for 72 h. Afterwards, the medium was supplemented with 10 µL MTT solution. After 4 h, the culture medium was removed and 100 µL DMSO was added. The absorbance was determined at the wavelength of 540 nm and 655 nm using a microplate reader (BioTek Epoch, America). The results were collected from three independent experiments. The IC50 was then calculated by using GraphPad Prism Software (version 7.0) and non-linear regression (curve fit).

For series [2], the system named is Hela (human cervical carcinoma cell line). The experiment in a line: MTT antiproliferative assay, Hela. Format: cell-based. The note with it: 72 h.
From the text: as §1, §2, §3

The subject of series [3] is HUVEC (human umbilical vein endothelial cell). The experiment in a line: MTT antiproliferative assay, HUVEC normal cells. Type of series: cell-based. The note with it: 72 h.
From the text: as §1, §2, §3
On the technique in general: Formazan colour is commonly taken as a measure of viable cells.

For series [4], the system named is KB cells. The experiment in a line: Transwell migration assay. Type of series: cell-based, human. The settings on record: 2 IC50, 48 h. The method, then: Wound healing assay and transwell assay were performed to investigate the effect of compound 6e on the migratory capability of KB cells.
Initially, KB cells (5×10^4 cells/well) were suspended in 200 μL of the FBS-free medium. Each upper chamber contained the vehicle and various concentrations of compound 6e (0.5 IC50, IC50, 2 IC50). Each lower chamber was filled with 600 μL of medium containing 10% FBS. After incubation at 37°C for 48 h, the cells upon the transwell membrane were removed with a cotton tip. The cells trapped on the bottom side of the membrane were fixed with methanol for 1 h and stained with crystal violet solution for 2 h. Subsequently, the chambers thoroughly washed with PBS. The migrated cells were then imaged with the inverted fluorescence microscope (Leica DMi8, Germany) and counted with ImageJ software for three independent fields randomly.

Series [5] relates to KB cells. The series is described as follows: Annexin V-FITC/PI dual staining apoptosis assay (flow cytometry). Type of series: cell-based, human. The method, then:
To investigate whether compound 6e could induce cell apoptosis, KB cells were treated with compound 6e in different concentrations for 48 h and the Annexin V-FITC/PI dual staining assay was carried out flow cytometry.
KB cells (5×10^5 cells/well) were seeded into six-well plates. […] Afterwards, cells were collected, washed twice with cold PBS. Then the treated cells were resuspended with 400 μL of 1X Annexin V binding buffer and mixed with 5 μL FITC and 5 μL PI (Annexin V-FITC Apoptosis Analysis Kit, Tianjing), and incubated at room temperature in the dark for 5 min. After the incubation, the samples were immediately analyzed by a Beckman Flow Cytometer.
In general terms: A flow cytometer gives signals particle by particle.

The subject of another series is PI3K in KB cells. The experiment in a line: Western blot, PI3K. Type of series: cell-based, human. The note with it: 0.40, 0.80, 1.60 μM, 24 h. From the text:
(§4) Based on the results of network pharmacology, the key proteins related to PI3K/AKT pathway were detected by Western blotting to explore the antitumor mechanism of compound 6e. […] Such an inconsistency might be due to a compensatory increase in PI3K level after the reduction of AKT phosphorylation level. Additionally, the active-caspase 3 protein, anti-apoptosis protein Bcl-2 and pro-apoptosis protein Bax were further analyzed. Caspase-3 normally exists in the cytoplasm as zymogen. During the early stage of apoptosis, caspase-3 (32 KD) is cleaved to the active 17-kD caspase-3 fragment, which is responsible for morphological and biochemical changes in apoptosis. Bcl-2 and Bax are the […] located on the mitochondrial membrane and capable of controlling the MMP (ΔΨm) and the activation of caspase cascade.
(§5) A total of 4 × 10^5 KB cells were seeded into 6-well and grown for overnight. Then the cells adherent to the wall were treated with compound 6e in different concentrations (0, 0.40, 0.80, 1.60 μM) for 24 h. After that, cells were collected, SDS lysate, 100X protease inhibitor and 50X phosphorylation inhibitor were added in a certain proportion to lyse the cells. The protein content was determined by BCA reagent (Beyotime, China) according to the standard curve. […]

Another series deals with caspase-3 in KB cells. The experiment in a line: Western blot, caspase-3. Type of series: cell-based, human. The settings on record: 24 h.
From the text: as §4, §5
Background: Immunoblotting shows a protein as a band on a membrane.

The subject of the next series is Bcl-2 in KB cells. The series is described as follows: Western blot, Bcl-2. Format: cell-based, human. The settings on record: 0.40 μM, 24 h.
From the text: as §4, §5

Regarding `O=CC=C(Cl)c1cc2ccc(OCc3ccccc3)cc2oc1=O` [Compound 6e, 3-(7-(Benzyloxy)-2-oxo-2H-chromen-3-yl)-3-chloroacrylaldehyde], the IC50 came to 0.39 ± 0.07 µM in series [1] (Homo sapiens, MTT, 72 h); 1.82 ± 0.22 µM in series [2]; 25.26 ± 0.2 µM in series [3]. Further, in series [1] (KB cells, relative to 5-FU), the “antiproliferative activity higher than 5-FU” value is given as 15 fold. Moreover, in series [1] (KB vs HUVEC), the “IC50 against KB cells lower than that of HUVECs (selectivity)” value is on record as 65 fold. For the same compound, in series [1] (KB vs LO2), the “IC50 against KB cells lower than that of LO2 cells (selectivity)” value was determined as 129 fold. Besides, the “number of migration cells reduced compared with the control group” value in the series on KB cells [4] is “approximately 93%”. The “apoptotic rate in the early stage (Q1-LR)” value in the series with KB cells [5] (0.5 IC50, 48 h) worked out at 6.99%; in the series on KB cells [5] (2 IC50, 48 h), 13.11%; in the series on KB cells [5] (IC50, 48 h) it was 6.69%. Moreover, the “late apoptotic rate (Q1-UR)” value with KB cells [5] (0.5 IC50, 48 h) worked out at 5.55%; in the series on KB cells [5] (2 IC50, 48 h) it was 7.22%; in the series with KB cells [5] (IC50, 48 h) it was 7.30%. Moreover, the total apoptosis rate with KB cells [5] (0.5 IC50, 48 h) came to 12.54%; in the series with KB cells [5] (2 IC50, 48 h), 20.33%; with KB cells [5] (IC50, 48 h), 13.99%. Also, the “relative PI3K level among the control and treatment groups” value in the series on PI3K in KB cells is reported as “not significantly different”. For the same compound, the “ratio of cleaved caspase-3 to caspase-3” value in the series with caspase-3 in KB cells (0.80 μM) was “increased”. Moreover, the “expression of the cleaved 17-kD caspase-3” value in the series on caspase-3 in KB cells (1.60 μM) is given as “upregulated”. Further, the “expression of Bcl-2 compared with the control group” value in the series with Bcl-2 in KB cells is listed as “visibly decreased”. The “proportion of Bcl-2 to Bax” value in the series with Bcl-2 in KB cells is recorded as “decrease”.
